{
  "source": "paper PMC8551122",
  "about": "“Characterization and Modeling of Thermostable GH50 Agarases from Microbulbifer elongatus PORT2” (Marine Biotechnology (New York, N.y.), 2021)",
  "molecular_target": "T1, AgaB50 (Microbulbifer elongatus, UniProt A0A516UX44)",
  "T1 construct": "full-length precursor 769 aa; 26 N-terminal residues (SPII lipoprotein signal peptide) deleted; N-terminal His6 tag; E. coli BL21 (DE3), pFO4; about 82 kDa",
  "T1 sequence (A0A516UX44 1-743)": "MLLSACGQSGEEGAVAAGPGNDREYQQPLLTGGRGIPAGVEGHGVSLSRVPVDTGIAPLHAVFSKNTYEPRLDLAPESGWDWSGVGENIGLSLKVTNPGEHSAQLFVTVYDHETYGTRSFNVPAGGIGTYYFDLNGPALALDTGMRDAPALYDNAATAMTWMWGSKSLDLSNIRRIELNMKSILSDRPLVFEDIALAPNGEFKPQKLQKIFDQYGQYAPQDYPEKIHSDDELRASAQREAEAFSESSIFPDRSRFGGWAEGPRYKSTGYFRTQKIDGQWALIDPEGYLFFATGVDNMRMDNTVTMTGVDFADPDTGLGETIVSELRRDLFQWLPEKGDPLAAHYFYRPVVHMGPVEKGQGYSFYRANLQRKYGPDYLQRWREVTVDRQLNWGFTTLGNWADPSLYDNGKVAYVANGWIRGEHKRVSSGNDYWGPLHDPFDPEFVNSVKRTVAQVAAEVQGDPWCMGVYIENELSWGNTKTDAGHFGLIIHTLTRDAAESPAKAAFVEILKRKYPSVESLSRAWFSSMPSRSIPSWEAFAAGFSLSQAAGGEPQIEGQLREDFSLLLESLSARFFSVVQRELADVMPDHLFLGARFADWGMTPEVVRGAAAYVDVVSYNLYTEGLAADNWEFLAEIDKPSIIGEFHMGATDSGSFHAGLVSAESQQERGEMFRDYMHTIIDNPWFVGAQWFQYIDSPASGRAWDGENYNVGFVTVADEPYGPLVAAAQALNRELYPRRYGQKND",
  "assay": "HPLC-RID product analysis, end point",
  "format": "biochemical",
  "conditions": "[…] in ultrapure water, […] °C, overnight",
  "data": [
    {"smiles": "OC[C@H]1O[C@@H](O[C@H]2[C@H]3OC[C@@H]2O[C@@H](O[C@H]2[C@@H](O)[C@@H](CO)O[C@@H](O[C@H]4[C@H]5OC[C@@H]4O[C@@H](O[C@H]4[C@@H](O)[C@@H](CO)O[C@@H](O[C@H]6[C@H]7OC[C@@H]6O[C@@H](O[C@H]6[C@@H](O)[C@@H](CO)OC(O)[C@@H]6O)[C@H]7O)[C@@H]4O)[C@H]5O)[C@@H]2O)[C@H]3O)[C@H](O)[C@@H](O[C@@H]2O[C@H]3CO[C@@H]([C@@H]2O)[C@@H]3O)[C@H]1O", "note": "(stereo partly shown) [NA8, neoagarooctaose]", "values": [
      {"measurement": "HPLC-RID product analysis, end point", "result": "AgaB50 was able to convert larger NAOS such as NA8, NA6, and NA4"}
    ]}
  ]
}
